The text below walks through data of US10975068B2, “6-aminopyridin-3-yl thiazoles as modulators of RORγT” (Janssen Pharmaceutica NV, priority 2016, dated 2021).

For experiment [1], the target named is human RORγt ligand binding domain (RORγt LBD) (Homo sapiens (Human), UniProt P51449). The experiment is described as follows: RORγt ThermoFluor® assay (thermal shift binding). To be noted: read-out: ThermoFluor® Assay, Kd. An outline of the steps: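 Binding was inferred from thermal stabilisation (ΔTm) of the E. coli-expressed RORγt LBD (0.065 mg/mL), monitored by 1,8-ANS (60 μM) emission at 500 nm during a 1 °C/min ramp. Buffer was Hepes 100 mM pH 7.0 with NaCl, GSH and Tween-20.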
For orientation: In DSF a fluorescence change marks the thermal transition of the protein.

The target of experiment [2] is full-length human RORγt (Homo sapiens (Human), UniProt P51449). The experiment is described as follows: RORγt (full-length human) reporter assay, Conditions B or C. It counts as cell-based. To be noted: for inhibition at 3 µM: at 3 μM compound concentration; for RORγt (FL) Reporter Assay B or C, % inhibition (value marked *): marked *: footnote not given. The procedure, abridged:
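Readout is dual luciferase: firefly (GAL4-driven) normalized to DMSO-only and saturating-reference controls, then to CMV-Renilla. Full-length human RORγt fused to GAL4-DBD was transiently expressed in HEK293T; compound exposure ran overnight (16-20 h) starting 4-6 h after transfection, final FBS 1.3%, DMSO 0.1%.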
(In general: Reporter assays use an easily measured gene product as a stand-in for the process of interest.)

The mark [3] stands for this setting: read-out: RORγt (FL) Reporter Assay B or C, % inhibition.
[4] abbreviates: read-out: RORγt (FL) Reporter Assay B or C, IC50.
Setting [5] is: Conditions B or C, read-out: RORγt (FL) Reporter Assay B or C, IC50.

Where two headings read alike, the source gives them in different places.

Chain of human RORγt ligand binding domain (RORγt LBD) (P51449 other isoform, or with tags, fused parts or gaps): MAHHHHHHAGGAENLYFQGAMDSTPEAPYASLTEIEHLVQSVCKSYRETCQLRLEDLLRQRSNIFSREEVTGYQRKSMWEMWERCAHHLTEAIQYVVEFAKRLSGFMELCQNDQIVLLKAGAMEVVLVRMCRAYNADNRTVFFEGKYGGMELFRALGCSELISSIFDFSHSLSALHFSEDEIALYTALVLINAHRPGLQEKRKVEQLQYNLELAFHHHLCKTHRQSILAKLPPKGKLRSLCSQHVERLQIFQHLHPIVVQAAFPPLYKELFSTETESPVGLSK
Chain of full-length human RORγt (P51449 other isoform, or with tags, fused parts or gaps): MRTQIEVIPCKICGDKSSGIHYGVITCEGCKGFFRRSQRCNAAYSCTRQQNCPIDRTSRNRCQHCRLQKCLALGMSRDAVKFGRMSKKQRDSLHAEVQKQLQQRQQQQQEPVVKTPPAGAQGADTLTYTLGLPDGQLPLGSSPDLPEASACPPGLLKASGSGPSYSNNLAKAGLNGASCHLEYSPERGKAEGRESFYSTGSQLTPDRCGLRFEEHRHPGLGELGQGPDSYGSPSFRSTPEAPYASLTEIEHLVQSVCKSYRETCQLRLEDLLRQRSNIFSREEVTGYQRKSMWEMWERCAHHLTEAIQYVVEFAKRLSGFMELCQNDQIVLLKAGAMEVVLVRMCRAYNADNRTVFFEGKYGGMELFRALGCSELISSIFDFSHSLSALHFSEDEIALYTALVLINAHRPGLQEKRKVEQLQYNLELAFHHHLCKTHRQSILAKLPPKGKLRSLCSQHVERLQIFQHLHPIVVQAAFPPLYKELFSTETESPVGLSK

With `CC1(Nc2cc(C(F)F)c(-c3sc(C(=O)N[C@H]4C[C@H](O)C4)nc3C(=O)N3C4CCC3CC4)cn2)CCC1` [Example 330, 4-((1s,4s)-7-Azabicyclo[2.2.1]heptane-7-carbonyl)-5-(4-(difluoromethyl)-6-((1-methylcyclobutyl)amino)pyridin-3-yl)-N-((1r,3R)-3-hydroxycyclobutyl)thiazole-2-carboxamide], in experiment [1], the Kd (usually the equilibrium constant for the complex coming apart) is 4.2 nM. For the same molecule, the inhibition (as a rule, the relative decrease from the control value, in per cent) at 3 µM in experiment [2] (setting [3]) came out at 93%. In addition, the IC50 (commonly the midpoint of a concentration-inhibition curve) in experiment [2] (setting [4]) is 0.016 µM.

In the case of `C[C@H](Nc1cc(C(F)F)c(-c2sc(C(=O)N[C@@H](C)C(C)(C)O)nc2C(=O)N2CC(F)(F)C[C@@H]2C)cn1)C1CC1` [Example 193, 5-(6-(((S)-1-Cyclopropylethyl)amino)-4-(difluoromethyl)pyridine-3-yl)-4-((S)-4,4-difluoro-2-methylpyrrolidine-1-carbonyl)-N—((S)-3-hydroxy-3-methylbutan-2-yl)thiazole-2-carboxamide], the Kd in experiment [1] is 2.6 nM. Further, the “RORγt (FL) Reporter Assay B or C, % inhibition (value marked *)” value (shortened to “RORγt … % inhibition (value marked *)”) in experiment [2] (Conditions B or C) is given as 82* %. Also, the IC50 in experiment [2] (setting [5]) turned out to be 0.032 µM.

For the molecule `CC[C@H](Nc1cc(C(F)F)c(-c2sc(C(=O)N3CC4CCC(C3)O4)nc2C(=O)N2CCC[C@@H]2C)cn1)C(F)(F)F` [Example 378, [5-[4-(Difluoromethyl)-6-[[(1S)-1-(trifluoromethyl)propyl]amino]-3-pyridyl]-2-(8-oxa-3-azabicyclo[3.2.1]octane-3-carbonyl)thiazol-4-yl]-[(2S)-2-methylpyrrolidin-1-yl]methanone], the Kd in experiment [1] is 18 nM. The inhibition at 3 µM in experiment [2] (setting [3]) is 109%. Besides, the IC50 in experiment [2] (setting [4]) is 0.079 µM.

`C[C@H]1CC(F)(F)CN1C(=O)c1nc(C(=O)NCC(C)(C)O)sc1-c1cnc(NC(C)(C)C2CC2)cc1C(F)F` [Example 106, (S)-5-(6-((2-Cyclopropylpropan-2-yl)amino)-4-(difluoromethyl)pyridin-3-yl)-4-(4,4-difluoro-2-methylpyrrolidine-1-carbonyl)-N-(2-hydroxy-2-methylpropyl)thiazole-2-carboxamide]: in experiment [1], the Kd was found to be 0.79 nM. Besides, the “RORγt … % inhibition (value marked *)” value in experiment [2] (Conditions B or C) was 117* %. Besides, the IC50 in experiment [2] (setting [5]) worked out at 0.022 µM.

Consider `CC[C@H](CO)NC(=O)c1nc(C(=O)N2CCC[C@@H]2C)c(-c2cnc(N[C@@H](C)C(F)(F)F)cc2C(F)F)s1` [Example 408, 5-[4-(Difluoromethyl)-6-[[(1S)-2,2,2-trifluoro-1-methyl-ethyl]amino]-3-pyridyl]-N-[(1R)-1-(hydroxymethyl)propyl]-4-[(2S)-2-methylpyrrolidine-1-carbonyl]thiazole-2-carboxamide], for which the Kd in experiment [1] was found to be 3.8 nM. Also, the inhibition at 3 µM in experiment [2] (setting [3]) turned out to be 83%. For the same molecule, the IC50 in experiment [2] (setting [4]) was 0.073 µM.

For the molecule `C[C@H]1CC(F)(F)CN1C(=O)c1nc(C(=O)NC2CCS(=O)(=O)CC2)sc1-c1cnc(NC(C)(C)C)cc1C(F)F` [Example 431, 5-[6-(tert-Butylamino)-4-(difluoromethyl)-3-pyridyl]-4-[(2S)-4,4-difluoro-2-methyl-pyrrolidine-1-carbonyl]-N-(1,1-dioxothian-4-yl)thiazole-2-carboxamide], the Kd in experiment [1] amounted to 0.36 nM. Moreover, in experiment [2] (setting [3]), the inhibition at 3 µM came out at 107%. Further, the IC50 in experiment [2] (setting [4]) stood at 0.02 µM.

On to `C[C@H]1CCCN1C(=O)c1nc(C(=O)NC[C@H](O)C(F)(F)F)sc1-c1cnc(NC(C)(C)C)cc1C(F)(F)F` (relative stereo) [Example 353, 5-(6-(tert-Butylamino)-4-(trifluoromethyl)pyridin-3-yl)-4-((S)-2-methylpyrrolidine-1-carbonyl)-N—((S*)-3,3,3-trifluoro-2-hydroxypropyl)thiazole-2-carboxamide], for which the Kd in experiment [1] was found to be 1.6 nM. In addition, in experiment [2] (setting [3]), the inhibition at 3 µM turned out to be 95%. In experiment [2] (setting [4]), the IC50 came to 0.02 µM.

`C[C@H]1CCCN1C(=O)c1nc(C(=O)NCC(O)(C(F)(F)F)C(F)(F)F)sc1-c1cnc(NC(C)(C)C)cc1C(F)(F)F` [Example 271, 5-[6-(tert-Butylamino)-4-(trifluoromethyl)-3-pyridyl]-4-[(2S)-2-methylpyrrolidine-1-carbonyl]-N-[3,3,3-trifluoro-2-hydroxy-2-(trifluoromethyl)propyl]thiazole-2-carboxamide]: the Kd in experiment [1] came out at 4 nM. In addition, the inhibition at 3 µM in experiment [2] (setting [3]) worked out at 106%. Further, the IC50 in experiment [2] (setting [4]) was 0.0057 µM.

As to `C[C@H]1CC(F)(F)CN1C(=O)c1nc(C(=O)N[C@H]2COC[C@H]2O)sc1-c1cnc(NC2(C)CCC2)cc1C(F)(F)F` (relative stereo) [Example 184, 4-((S)-4,4-Difluoro-2-methylpyrrolidine-1-carbonyl)-N-((3S*,4S*)-4-hydroxytetrahydrofuran-3-yl)-5-(6-((1-methylcyclobutyl)amino)-4-(trifluoromethyl)pyridine-3-yl)thiazole-2-carboxamide], the Kd in experiment [1] was determined as 0.7 nM. Further, the “RORγt … % inhibition (value marked *)” value in experiment [2] (Conditions B or C) was 92* %. For the same molecule, in experiment [2] (setting [5]), the IC50 came out at 0.049 µM.

For `C[C@H]1CCCN1C(=O)c1nc(C(=O)NC2CCS(=O)(=O)CC2)sc1-c1cnc(NC(C)(C)C)cc1C(F)F` [Example 435, 5-[6-(tert-Butylamino)-4-(difluoromethyl)-3-pyridyl]-N-(1,1-dioxothian-4-yl)-4-[(2S)-2-methylpyrrolidine-1-carbonyl]thiazole-2-carboxamide], the Kd in experiment [1] came out at 2.3 nM. Besides, the inhibition at 3 µM in experiment [2] (setting [3]) was 105%. Further, the IC50 in experiment [2] (setting [4]) was determined as 0.021 µM.

As to `C[C@@H](NC(=O)c1nc(C(=O)N2C3CCC2CC3)c(-c2cnc(N[C@@H](C3CC3)C(F)(F)F)cc2C(F)F)s1)C(C)(C)O` [Example 316, 4-((1s,4s)-7-Azabicyclo[2.2.1]heptane-7-carbonyl)-5-(6-(((S)-1-cyclopropyl-2,2,2-trifluoroethyl)amino)-4-(difluoromethyl)pyridin-3-yl)-N—((R)-3-hydroxy-3-methylbutan-2-yl)thiazole-2-carboxamide], the Kd in experiment [1] is 2.9 nM. This molecule also had an IC50 in experiment [2] (RORγt (FL) Reporter Assay B or C, IC50) of 0.032 µM. The inhibition at 3 µM in experiment [2] (setting [3]) is 108%.

On to `C[C@H]1CCCN1C(=O)c1nc(C(=O)N[C@@H]2CC[C@@H](O)C2)sc1-c1cnc(NC(C)(C)C)cc1C(F)F` [Example 432, 5-[6-(tert-Butylamino)-4-(difluoromethyl)-3-pyridyl]-N-[(1R,3R)-3-hydroxycyclopentyl]-4-[(2S)-2-methylpyrrolidine-1-carbonyl]thiazole-2-carboxamide], for which, in experiment [1], the Kd was found to be 1.3 nM. The inhibition at 0.33 µM in experiment [2] (at 0.33 μM compound concentration, read-out: RORγt (FL) Reporter Assay B or C, % inhibition) is 122%. The IC50 in experiment [2] (setting [4]) came to 0.011 µM.

With `CC(C)(O)CNC(=O)c1nc(C(=O)N2CCC(F)CC2)c(-c2cnc(NC3CCCCC3(F)F)cc2C(F)(F)F)s1` (stereo not drawn) [Example 26, 5-(6-((2,2-Difluorocyclohexyl)amino)-4-(trifluoromethyl)pyridin-3-yl)-4-(4-fluoropiperidine-1-carbonyl)-N-(2-hydroxy-2-methylpropyl)thiazole-2-carboxamide], the Kd in experiment [1] was 9.5 nM. In addition, in experiment [2] (setting [5]), the IC50 amounted to 0.037 µM. In addition, the inhibition at 6 µM in experiment [2] (read-out: RORγt (FL) Reporter Assay B or C, % inhibition @ 6 μM, Conditions B or C, @ 6 μM) was 111%.

As to `CC[C@H](Nc1cc(C(F)(F)F)c(-c2sc(C(=O)NCC(C)(C)O)nc2C(=O)N2C3CCC2CC3)cn1)C(F)(F)F` [Example 101, 4-((1s,4s)-7-Azabicyclo[2.2.1]heptane-7-carbonyl)-N-(2-hydroxy-2-methylpropyl)-5-(6-(((S)-1,1,1-trifluorobutan-2-yl)amino)-4-(trifluoromethyl)pyridin-3-yl)thiazole-2-carboxamide], the dissociation constant (Kd) in experiment [1] is 3.2 nM. The “RORγt … % inhibition (value marked *)” value in experiment [2] (Conditions B or C) is recorded as 107* %. Moreover, the IC50 in experiment [2] (RORγt (FL) Reporter Assay B or C, IC50 (μM), Conditions B or C) is 0.019 µM.
